Values joined by “and” are separate entries in the source; they are usually repeats but may differ in a detail not shown here. Equal values may be shown once.
Columns and labels:
[1] = The aqueous solubility in 2% solution was determined; soluble; assay type: physicochemical; conditions: buffer
Oryctolagus cuniculus = organism: Oryctolagus cuniculus; test: Maximum fall in ocular hypertension in the right eye of albino rabbits; assay type: functional
[2] = Binding of 10 phosphate buffer; assay type: protein assay; conditions: Bos taurus
Carbonic anhydrase 2 [3] = biological target: T1, Carbonic anhydrase 2 (Homo sapiens, UniProt P00918)
[4] = The aqueous solubility in 2% solution was determined; insoluble; assay type: physicochemical; conditions: buffer
Carbonic anhydrase 2 [5] = biological target: T1, Carbonic anhydrase 2; remark: listed apart in the source
Carbonic anhydrase 2 [6] = biological target: T1, Carbonic anhydrase 2; remark: listed apart in the source
[7] = The aqueous solubility in 2% (+ = soluble, - = insoluble) solution was determined; assay type: physicochemical; conditions: buffer

Row | Aqueous solubility [1] | Binding [2] | IC50 (Carbonic anhydrase 2 [3]) [nM] | Aqueous solubility [4] | Ki (Carbonic anhydrase 2 [5]) [nM] | IC50 (Carbonic anhydrase 2 [6]) [nM] | Aqueous solubility [7] | Compound | Activity (Oryctolagus cuniculus) [mmHg]
1 | Soluble | – | – | – | – | – | – | CC(C)CN[C@H]1CCS(=O)(=O)c2sc(S(N)(=O)=O)cc21 [SEZOLAMIDE] | -4.3
2 | – | 25.6% | 12.4 | Insoluble | 1.8 | 2.3 | – | CCCCNC1CCS(=O)(=O)c2sc(S(N)(=O)=O)cc21.Cl (stereo not drawn) | -5.7
3 | – | 23.7% | 13.9 | – | 2.3 | 2.5 | Soluble | CNC1CCS(=O)(=O)c2sc(S(N)(=O)=O)cc21.Cl (stereo not drawn) | -3.3
4 | Soluble | 9% | 70 | – | 9.3 | 12.3 | – | CCN(CC)C1CCS(=O)(=O)c2sc(S(N)(=O)=O)cc21.Cl (stereo not drawn) | -5.3
5 | Soluble | 32.1% | 9.2 | – | 3.7 | 3.2 | – | Cl.NC1CCS(=O)(=O)c2sc(S(N)(=O)=O)cc21 (stereo not drawn) | -3.3
6 | Soluble | 29.2% | – | – | – | – | – | CCNC1CCS(=O)(=O)c2sc(S(N)(=O)=O)cc21.Cl (stereo not drawn) | -4.2
7 | – | 19.8% | 9.2 | Insoluble | 1.1 | 1.5 | – | CCCNC1CCS(=O)(=O)c2sc(S(N)(=O)=O)cc21.Cl (stereo not drawn) | -8.7
8 | Soluble | 1.9% | – | – | – | – | – | NS(=O)(=O)c1cc2c(s1)S(=O)(=O)CCC2O (stereo not drawn) | -6.9
9 | Soluble | – | – | – | – | – | – | CC(C)CN[C@@H]1CCS(=O)(=O)c2sc(S(N)(=O)=O)cc21.Cl | -1.3
10 | – | 12.3% and 12.8% | – | – | – | – | – | CC(C)CN[C@H]1CCS(=O)(=O)c2sc(S(N)(=O)=O)cc21 | –
11 | Soluble | – | – | – | – | – | – | CC(C)CN[C@H]1CCS(=O)(=O)c2sc(S(N)(=O)=O)cc21.Cl [SEZOLAMIDE HYDROCHLORIDE] | -6.5

From ChEMBL document CHEMBL1124372, “Thienothiopyran-2-sulfonamides: novel topically active carbonic anhydrase inhibitors for the treatment of glaucoma” (J Med Chem, 1989)
